We go through one compound from article PMC1079851, “Cloning of the koi herpesvirus (KHV) gene encoding thymidine kinase and its use for a highly sensitive PCR based diagnosis” (BMC Microbiology, 2005).

In this assay the target is T1, KHV TK (recombinant thymidine kinase) (Cyprinid herpesvirus 3, UniProt Q8B3A9).
T1 construct: gene CyHV3_ORF55; E. coli ER2566, chitin column
The assay can be described thus: DE-81 filter paper radiometric kinase assay. In kind it is biochemical. As to conditions: ATP 10.0 mM, MgCl2 2.0 mM, Tris-Cl 140 mM, 37 °C; substrate 5-30 mM; labelled compound (methyl-3H).

Turning to `Cc1cn([C@H]2C[C@H](O)[C@@H](CO)O2)c(=O)[nH]c1=O` [methyl-3H Thymidine (dThd)], the “DE-81 filter paper radiometric kinase assay” value is reported as “the enzyme is specifically active using methyl-^3H Thymidine (dThd)”.
